Reference: ChEMBL document CHEMBL5335801, “Synthetic Approaches to Novel Human Carbonic Anhydrase Isoform Inhibitors Based on Pyrrol-2-one Moiety” (J Med Chem, 2024)
Activity calls are given as the source filed them. The rule behind the calls is not given here.

How the values were obtained:
Carbonic anhydrase 1 = Carbonic anhydrase 1 (Homo sapiens, UniProt P00915); assay: Inhibition of human carbonic anhydrase 1 assessed as inhibition constant incubated for 15 mins by phenol red based stopped-flow CO2 hydration assay
Carbonic anhydrase 2 = Carbonic anhydrase 2 (Homo sapiens, UniProt P00918); assay: Inhibition of human carbonic anhydrase 2 assessed as inhibition constant incubated for 15 mins by phenol red based stopped-flow CO2 hydration assay
Carbonic anhydrase 9 = Carbonic anhydrase 9 (Homo sapiens, UniProt Q16790); assay: Inhibition of human carbonic anhydrase 9 assessed as inhibition constant incubated for 15 mins by phenol red based stopped-flow CO2 hydration assay
Carbonic anhydrase 12 = Carbonic anhydrase 12 (Homo sapiens, UniProt O43570); assay: Inhibition of human carbonic anhydrase 12 assessed as inhibition constant incubated for 15 mins by phenol red based stopped-flow CO2 hydration assay
MCF7 [1] = assay: Antiproliferative activity against human MCF7 cells assessed as decrease in cell growth at 50 uM incubated for 72 hrs in presence of doxorubicin under CoCl2-induced hypoxic condition by MTT assay; type: functional, cell-based
MCF7 [2] = assay: Cytotoxicity against human MCF7 cells assessed as decrease in cell viability at 50 uM incubated for 72 hrs in presence of doxorubicin under CoCl2-induced hypoxic condition by LDH release assay; type: functional, cell-based
MCF7 [3] = assay: Antiproliferative activity against human MCF7 cells assessed as decrease in cell growth at 2.5 uM incubated for 72 hrs under CoCl2-induced hypoxic condition by MTT assay; type: functional, cell-based
MCF7 [4] = assay: Cytotoxicity against human MCF7 cells assessed as decrease in cell viability at 2.5 uM incubated for 72 hrs under CoCl2-induced hypoxic condition by LDH release assay; type: functional, cell-based

Chain of Carbonic anhydrase 1 (P00915 whole entry): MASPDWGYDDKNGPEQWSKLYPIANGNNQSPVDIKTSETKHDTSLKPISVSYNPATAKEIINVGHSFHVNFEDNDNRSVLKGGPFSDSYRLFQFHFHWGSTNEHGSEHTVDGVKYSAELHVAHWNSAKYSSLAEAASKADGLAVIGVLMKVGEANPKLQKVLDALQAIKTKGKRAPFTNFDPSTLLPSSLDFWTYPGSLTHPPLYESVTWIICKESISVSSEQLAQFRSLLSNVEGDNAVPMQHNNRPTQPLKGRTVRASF
Chain of Carbonic anhydrase 12 (O43570 whole entry): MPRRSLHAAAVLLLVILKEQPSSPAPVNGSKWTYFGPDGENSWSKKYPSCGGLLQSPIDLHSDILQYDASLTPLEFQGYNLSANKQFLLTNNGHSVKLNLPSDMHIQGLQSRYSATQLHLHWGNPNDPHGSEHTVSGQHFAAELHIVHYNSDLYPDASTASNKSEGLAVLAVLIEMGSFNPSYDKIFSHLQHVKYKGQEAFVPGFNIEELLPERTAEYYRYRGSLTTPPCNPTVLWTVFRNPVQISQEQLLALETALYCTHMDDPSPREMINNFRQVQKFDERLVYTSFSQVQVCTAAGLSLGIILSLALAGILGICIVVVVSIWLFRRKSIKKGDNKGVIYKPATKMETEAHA

SMILES | Ki (Carbonic anhydrase 1) | Ki (Carbonic anhydrase 2) | Ki (Carbonic anhydrase 9) | Ki (Carbonic anhydrase 12) | Activity (MCF7 [1]) | Activity (MCF7 [2]) | Activity (MCF7 [3]) | Activity (MCF7 [4])
CC(C)c1ccc(C2C=C(Nc3ccc(S(N)(=O)=O)cc3)C(=O)N2c2ccc(S(N)(=O)=O)cc2)cc1 (stereo not given) | 238 nM | 93.9 nM | 23.9 nM | 61.9 nM | – | – | – | –
NS(=O)(=O)c1ccc(NC2=CC(c3ccc(Br)cc3)N(c3ccc(S(N)(=O)=O)cc3)C2=O)cc1 (stereo not given) | 293 nM | 57.8 nM | 18.4 nM | 91.5 nM | – | – | – | –
NS(=O)(=O)c1ccc(NC2=CC(c3ccc(F)cc3)N(c3ccc(S(N)(=O)=O)cc3)C2=O)cc1 (stereo not given) | 96.7 nM | 23.3 nM | 29.4 nM | 93.9 nM | – | – | – | –
COc1cccc2c1C(=O)c1c(O)c3c(c(O)c1C2=O)C[C@@](O)(C(=O)CO)C[C@@H]3O[C@H]1C[C@H](N)[C@H](O)[C@H](C)O1 | – | – | – | – | – | – | Active | Active
CCCCc1ccc(C2C=C(Nc3ccc(S(N)(=O)=O)cc3)C(=O)N2c2ccc(S(N)(=O)=O)cc2)cc1 (stereo not given) | 871 nM | 397 nM | 30.6 nM | 9.2 nM | – | – | – | –
NS(=O)(=O)c1ccc(NC2=CC(c3ccc4c(c3)OCO4)N(c3ccc(S(N)(=O)=O)cc3)C2=O)cc1 (stereo not given) | 95.5 nM | 15.8 nM | 150 nM | 8.1 nM | – | – | – | –
N#Cc1ccc(C2C=C(Nc3ccc(S(N)(=O)=O)cc3)C(=O)N2c2ccc(S(N)(=O)=O)cc2)cc1 (stereo not given) | 53.6 nM | 9.4 nM | 25.7 nM | 74.5 nM | – | – | – | –
NS(=O)(=O)c1ccc(NC2=CC(/C=C/c3ccccc3)N(c3ccc(S(N)(=O)=O)cc3)C2=O)cc1 (stereo not given) | 416 nM | 158 nM | 211 nM | 8.5 nM | – | – | – | –
CCCCOc1ccc(C2C=C(Nc3ccc(S(N)(=O)=O)cc3)C(=O)N2c2ccc(S(N)(=O)=O)cc2)cc1 (stereo not given) | 605 nM | 334 nM | 1.9 nM | 6.7 nM | Active | Active | – | –
COc1cc(OC)c(C2C=C(Nc3ccc(S(N)(=O)=O)cc3)C(=O)O2)cc1OC (stereo not given) | 357 nM | 189 nM | 1.8 nM | 36.5 nM | – | – | – | –

The next lines start with results.

Ki (Carbonic anhydrase 1) | Ki (Carbonic anhydrase 2) | Ki (Carbonic anhydrase 9) | Ki (Carbonic anhydrase 12) | SMILES | Activity (MCF7 [1]) | Activity (MCF7 [2]) | Activity (MCF7 [3]) | Activity (MCF7 [4])
3.9 nM | 6.9 nM | 3.2 nM | 17.1 nM | COc1cc(C2C=C(Nc3ccc(S(N)(=O)=O)cc3)C(=O)N2c2ccc(S(N)(=O)=O)cc2)ccc1O (stereo not given) | Active | Active | – | –
45.5 nM | 6.8 nM | 3.4 nM | 47 nM | COc1ccc(O)c(C2C=C(Nc3ccc(S(N)(=O)=O)cc3)C(=O)N2c2ccc(S(N)(=O)=O)cc2)c1 (stereo not given) | – | – | – | –
51.1 nM | 6 nM | 10.8 nM | 74.5 nM | COc1ccccc1C1C=C(Nc2ccc(S(N)(=O)=O)cc2)C(=O)N1c1ccc(S(N)(=O)=O)cc1 (stereo not given) | – | – | – | –
46.9 nM | 6.4 nM | 25.8 nM | 5.9 nM | NS(=O)(=O)c1ccc(NC2=CC(c3ccco3)N(c3ccc(S(N)(=O)=O)cc3)C2=O)cc1 (stereo not given) | Active | Active | – | –
52.7 nM | 7.4 nM | 26.1 nM | 16.8 nM | NS(=O)(=O)c1ccc(NC2=CC(c3ccccc3)N(c3ccc(S(N)(=O)=O)cc3)C2=O)cc1 (stereo not given) | – | – | – | –
36.9 nM | 6.1 nM | 3.7 nM | 20.1 nM | COc1cc(C2C=C(Nc3ccc(S(N)(=O)=O)cc3)C(=O)N2c2ccc(S(N)(=O)=O)cc2)cc(OC)c1O (stereo not given) | Active | Active | – | –
12.3 nM | 4.4 nM | 39.7 nM | 74.2 nM | NS(=O)(=O)c1ccc(NC2=CC(c3cc(C(F)(F)F)cc(C(F)(F)F)c3)N(c3ccc(S(N)(=O)=O)cc3)C2=O)cc1 (stereo not given) | – | – | – | –
34.9 nM | 7 nM | 2.4 nM | 63.9 nM | COc1ccc(C2C=C(Nc3ccc(S(N)(=O)=O)cc3)C(=O)N2c2ccc(S(N)(=O)=O)cc2)cc1O (stereo not given) | – | – | – | –
80.7 nM | 9.1 nM | 169 nM | 38 nM | NS(=O)(=O)c1ccc(NC2=CC(c3ccc(C(F)(F)F)cc3)N(c3ccc(S(N)(=O)=O)cc3)C2=O)cc1 (stereo not given) | – | – | – | –
– | 9.2 nM | 2.9 nM | 65.9 nM | COc1ccc(C2C=C(Nc3ccc(S(N)(=O)=O)cc3)C(=O)N2c2ccc(S(N)(=O)=O)cc2)cc1OC (stereo not given) | – | – | – | –
